# From US20080176339A1, “NEUTRAL LABELING REACTANTS AND CONJUGATES DERIVED THEREOF” (WALLAC OY, priority 2006, published 2008)
# Key:
# antiserum = experiment: Performance of thyroxine tracers in DELFIA based T4-assay compared to AutoDELFIA Neonatal T4 kit; details: up to one week in instrument-like conditions
# Experimental: The assay concentrations of the antiserum were optimized for each tracer individually, and the analytical sensitivities of the optimized standard curves were defined. The correlation between the methods were studied with a small sample panel. The on-board stability was tested up to one week in instrument-like conditions. Sensitivity to the interference of EDTA-containing samples was also studied.
# [1] = in vivo; cited from earlier work
# [2] = Stabilities of chelates in DELFIA Enhancement Solution and DELFIA Inducer (dissociation of europium followed by time-resolved fluorometer); assay type: physicochemical; details: RT (25° C.)
# Experimental: The chelates (ca 1 mg) were dissolved either in Inducer or Enhanchement Solution. The dissociation of the europium at 25° C. were followed using a time-resolved fluorometer. The results are shown below
compound,measurement,setting,value
NC(=O)CN(CCN(CC(=O)O)CC(Cc1ccc(NC(=S)NCCCCCC(=O)NC(Cc2cc(I)c(Oc3cc(I)c(O)c(I)c3)c(I)c2)C(=O)O)cc1)N(CC(N)=O)CC(=O)O)CC(=O)O (centres unmarked) [Compound 13],On board stability,antiserum,Better
O=C(O)CN(CCN(CC(=O)O)CC(Cc1ccc(NC(=S)NCCCCCC(=O)NC(Cc2cc(I)c(Oc3cc(I)c(O)c(I)c3)c(I)c2)C(=O)O)cc1)N(CC(=O)O)CC(=O)O)CC(=O)O (centres unmarked) [Compound T4-DTPA],On board stability,antiserum,Better
O=C([O-])CN(CCN(CC(=O)[O-])CC(=O)O)CCN(CC(=O)[O-])CC(=O)O.[Gd+3] [Gd-DTPA],Crossing of intact blood-brain barrier,[1],does not cross an intact blood-brain barrier
"Europium Chelate of 2-(4-aminobenzyl)-1,7-bis(aminocarbonylmethyl)-1,4,7-tris(carboxymethyl)-1,4,7-triazaheptane [Compound 10]","Approximate time needed for complete dissociation, Enhancer",[2]; DELFIA Enhancement Solution,30 min
same,"Approximate time needed for complete dissociation, Inducer",[2]; DELFIA Inducer,<5 min
